Laboratory results from US20160158262A1, “METHODS OF TREATING IRRITABLE BOWEL SYNDROME” (CEDARS-SINAI MEDICAL CENTER, priority 2013, published 2016).

Legend:
[1] = in vivo
Protocol: All subjects with a diagnosis of C-IBS presented for a fasting breath test after a 12 hour fast. Only subjects with methane level of >3 ppm on a single breath sample were enrolled. Subjects then completed a baseline study questionnaire and a baseline audiogram. […] Subjects were then asked to complete a daily stool diary for two weeks with weekly questionnaires for overall symptom severity. Subjects were eligible for randomization only if they were confirmed to have <3 CSBMs per week during stool diary.
The randomization scheme was set in blocks of 4 and each site received batches of drug in multiples of 4 to balance each study site into blocks. The allocation was concealed. The randomization was done by the drug company with a tracking list provided to the study site pharmacy in a concealed envelope. The pharmacy, investigators and patients were blinded. During the 14 days of treatment, subjects completed weekly symptom questionnaires (2 questionnaires over 2 weeks).
Baseline qualitative data and side effect rates were compared by Fisher's Exact Test. Quantitative baseline data was normal so were compared by t-Test. Data were expressed as mean±SD. The primary endpoint was also normally distributed and compared by t-test.

breath methane = experiment: Fasting breath sample for methane after therapy in the same trial; assay type: in vivo, human
Protocol: (§1) Following completion of therapy, subjects were asked to continue with the weekly symptom questionnaires for an additional 4 weeks. During the final week of follow up, subjects were asked to repeat the 7-day stool diary followed by the final weekly questionnaire. Finally, subjects were asked to repeat a single fasting breath sample to examine for the presence of methane.
Subjects were asked to fast for 12 hours prior to a breath sample being obtained. Breath samples were collected via a Quintron dual bag collecting system (Quintron Instrument Company, Milwaukee, Wis.). The sampled gas was analyzed using a BreathTracker SC (Quintron Instrument Company, Milwaukee, Wis.). Output was reported as methane in parts per million (ppm) after correction for alveolar sample quality using breath CO2 concentration.
The primary outcome measure of this study was constipation severity as assessed on a VAS score from the first week following completion of the treatment phase. Secondary outcome measures included the severity of constipation, abdominal pain, urgency, bloating and straining over the entire study period. In addition, the eradication of methane was evaluated as a determinant of improvement at 4 weeks post therapy.

[2] = test system: C-IBS subjects with methane; experiment: Randomized double-blind trial in methane-positive C-IBS subjects: weekly symptom severity questionnaires (VAS 0-100); assay type: in vivo, human
Protocol: Consecutive C-IBS subjects (18-65 yrs of age) (Rome III criteria) were recruited after applying exclusion criteria. All subjects presented for a lactulose breath test after a 12 hour fast. Only subjects with methane level >3 ppm on at least 1 breath sample were enrolled. Subjects then completed a stool diary, questionnaire (100 point VAS scale for bloating, abdominal pain, constipation, diarrhea and straining) and 2 week run in phase. […] Questionnaires were repeated weekly during treatment and for 4 weeks following completion of treatment. On the last week of follow up, the stool diary was repeated.
Consecutive patients (18-65 yrs of age) who fulfilled the Rome II criteria for C-IBS^2 were recruited. Patients were included if they reported <3 complete and spontaneous bowel movements (CSBMs) per week and had breath methane >3 ppm. […] Subjects were also excluded if they had taken an antibiotic or probiotic in the previous 30 days or were currently taking narcotics, proton pump inhibitors, tricyclic antidepressants, or medications known to alter intestinal motility. All subjects provided informed written consent and the study was approved by the institutional review board of all three study sites. Subjects who completed the study received a stipend. The study was registered with clinicaltrials.gov (NCT00945334).
The allocation was concealed. […] The pharmacy, investigators and patients were blinded.
as §1
The baseline study questionnaire included subject demographics as well as symptom severity information. Follow-up questionnaires included a repeat evaluation of symptom severity. The following were assessed: abdominal pain, constipation, bloating, urgency, incomplete evacuation, straining and diarrhea. Severity was rated using a visual analog scale (VAS) from 0-100 mm (with 0=no symptom and 100=severe symptoms).
The primary outcome measure of this study was constipation severity as assessed on a VAS score from the first week following completion of the treatment phase. […] In addition, the eradication of methane was evaluated as a determinant of improvement at 4 weeks post therapy.
Data were expressed as mean±SD.
To examine the effect of each group over the duration of the study, a mixed longitudinal model was used. […] The models were analyzed with a single covariate (baseline diarrhea, constipation, abdominal pain, or bloating severity score). […]

methane = conditions: retrospective study; cited from earlier work
[3] = test system: non-selected population of IBS; conditions: cited from earlier work
[4] = test system: non-constipated IBS subjects; conditions: cited from earlier work
[5] = by week 2 of treatment, 100 point VAS, mean±SD

Row | Compound | Side effect: Abdominal pain [1] | Side effect: Bloating and distension [1] | Side effect: Constipation [1] | Side effect: Diarrhea [1] | Side effect: Nausea [1] | Side effect: Urgency [1] | reduction in methane from baseline (median drop) (breath methane; fasting breath sample, final visit vs baseline) [ppm] | subjects with methane levels ≦3 ppm following treatment (breath methane; final visit, of 15 subjects (rifaximin plus neomycin), out of 16 subjects (neomycin)) [subjects] | bloating severity (VAS) [2, 5] | constipation VAS score [2, 5] | difference in constipation severity between subjects with and without methane ≦3 ppm ([2]; final visit) | VAS score for constipation (primary endpoint) ([2]; one week after completion of 14 days of therapy, ITT, mean±SD) | benefit of single antibiotic (methane) | improvement of IBS compared to placebo [3] | rate of normalizing the breath test [3] | duration of benefits following cessation of therapy ([4]; after 14 days of rifaximin therapy, global symptom rating, bloating, stool consistency, abdominal pain) [months] | efficacy versus placebo in the treatment of IBS ([4]; multiple published randomized trials)
1 | neomycin | 6 (38) n(%) | 9 (56) n(%) | 2 (13) n(%) | 2 (13) n(%) | 10 (63) n(%) | 2 (13) n(%) | 7.5 | 11 | 65.1±25.9 | 57.9±25.0 | no significant difference | 61.2±24.1 | did not have a substantial benefit | successful in improving IBS | poor rate | – | –
2 | CO[C@H]1/C=C/O[C@@]2(C)Oc3c(C)c(O)c4c(O)c(c5c(nc6cc(C)ccn65)c4c3C2=O)NC(=O)/C(C)=C\C=C\[C@H](C)[C@H](O)[C@@H](C)[C@@H](O)[C@@H](C)[C@H](OC(C)=O)[C@@H]1C [Rifaximin, rifaximin] | – | – | – | – | – | – | – | – | – | – | – | – | did not have a substantial benefit | – | – | 3 | superiority over placebo
